Assay [1] deals with Mus musculus. As to the kind of experiment: Antiinflammatory activity against TPA-induced CD-1 mouse ear edema model assessed as reduction in ear edema at 0.25 mg/kg relative to control. Format: functional. More on the design: scale not given: the % may be the effect or the level left.
Assay [2] relates to Mus musculus. Briefly: Antiinflammatory activity against TPA-induced CD-1 mouse ear edema model assessed as reduction in ear edema. Format: functional, organism-based.
The test system of a further assay is Rattus norvegicus. As to the kind of experiment: Anti-inflammatory activity against LPS-induced paw edema in Sprague-Dawley rat assessed as inhibition of paw edema. Format: functional.
The test system of assay [3] is BV-2. Briefly: Antiinflammatory activity in mouse BV-2 cells assessed as reduction in LPS-induced NO production by Griess reagent based analysis. Format: functional, cell-based.
Assay [4] can be described thus: Inhibition of nitric oxide synthase (unknown origin). More on the design: species or system Homo sapiens.
The test system of assay [5] is RAW264.7. As to the kind of experiment: Anti-inflammatory activity against mouse RAW264.7 cells assessed as reduction in NO production pre-incubated with compound for 1 hrs followed by LPS-stimulation and measured for 1 hrs by […]. Format: functional, cell-based.
For assay [6], the system named is RAW264.7. Briefly: Anti-inflammatory activity in mouse RAW264.7 cells assessed as inhibition of LPS-induced TNF-alpha production at 50 microg/ml relative to control. Format: functional. Further details: scale not given: the % may be the effect or the level left. The conditions noted are these: dose 50 µg/ml.
Assay [7] concerns RAW264.7. As to the kind of experiment: Anti-inflammatory activity in LPS-stimulated mouse RAW264.7 cells assessed as reduction in NO production incubated for 24 hrs by Griess reagent based assay. Format: functional, cell-based. The conditions noted are these: RAW264.7, 24 h.
The subject of assay [8] is RAW264.7. As to the kind of experiment: Anti-inflammatory activity in mouse RAW264.7 cells assessed as inhibition of LPS-induced IL-6 production at 50 microg/ml relative to control. Format: functional. Further details: scale not given: the % may be the effect or the level left. To be noted: dose 50 µg/ml.
The test system of assay [9] is BV-2. Briefly: Antineuroinflammatory activity in LPS-induced mouse BV-2 cells assessed as inhibition of iNOS production at 50 uM pre-incubated for 2 hr followed by LPS-stimulation measured for 24 hrs by Western blot analysis. Format: functional. The conditions noted are these: time 26 hrs. Further details: scale not given: the % may be the effect or the level left.

For a further assay, the system named is Neutrophil. As to the kind of experiment: Inhibition of fMLP-induced cell migration in human neutrophil. Format: functional, cell-based.
Assay [10] deals with RAW264.7. Briefly: Anti-inflammatory activity in LPS-stimulated mouse RAW264.7 cells assessed as inhibition of NO production by Griess reagent based assay. Format: functional, cell-based.
The test system of assay [11] is RAW264.7. Briefly: Anti-inflammatory activity in LPS-stimulated mouse RAW264.7 cells assessed as inhibition of NO production by Griess reagent based analysis. Format: functional, cell-based.

Take `O=C1C[C@@H](c2ccc(O)c(O)c2)Oc2cc(O)cc(O)c21` [ERIODICTYOL]: in the assay on Mus musculus [1], the Activity was 56.3%. Moreover, in the assay with Mus musculus [2], the IC50 came out at 0.72 µM.

For the compound `COc1ccc(-c2cc(=O)c3c(O)c(OC)c(O)cc3o2)cc1OC` [EUPATILIN], in the assay with Rattus norvegicus, the ID50 is 0.28 umol/cm2.

Regarding `COc1cc(-c2cc(=O)c3c(O)c(OC)c(O)cc3o2)ccc1O` [JACEOSIDINE], the IC50 in the assay on BV-2 [3] came out at 27 µM.

`O=C1C[C@@H](c2ccc(O)cc2)Oc2cc(O)ccc21` [LIQUIRTIGENIN]: the IC50 in [4] turned out to be 19.1 µM; in the assay on RAW264.7 [5], 16.3 µM.

For `O=c1cc(-c2ccc(O)c(O)c2)oc2cc(O)cc(O)c12` [LUTEOLIN], the Activity in the assay on RAW264.7 [6] was determined as 38%; with RAW264.7 [8] it was 37%. For the same compound, the IC50 in the assay with RAW264.7 [7] is 1.2 µM.

Take `COc1ccc(-c2cc(=O)c3c(OC)c(OC)c(OC)c(OC)c3o2)cc1OC` [NOBILETIN]: the Activity in the assay with BV-2 [9] came out at 71.2%.

In the case of `COc1cc(O)c2c(=O)cc(-c3ccccc3)oc2c1` [TECHTOCHRYSIN], the midpoint of inhibition with Neutrophil, the IC50, lay at 1.77 µM.

For `COc1cc(-c2cc(=O)c3c(O)cc(O)cc3o2)cc(OC)c1O` [TRICIN], the IC50 was 46.4 µM in the assay with RAW264.7 [10] and 28 µM in the assay with RAW264.7 [11].
